Laboratory results: patent EP3985010A1, “SPIROCYCLIC INHIBITORS OF HEPATITIS B VIRUS” (priority 2020, dated 2022)

Test system: HBV
Assay: Anti-HBV activity in vitro: quantification of extracellular HBV DNA by direct qPCR in HepAD38 cells
Type: cell-based
Settings: Hepatitis B virus, doxycycline-free medium, 96 hours at 37°C, 8-point dose-response curve, read-out: HBV inh EC50
Excerpt: HepAD38 cell line (Ladner et al., Antimicrob Agents Chemother, 1997, 41, 1715-20) was used for HBV inhibition assays. HepAD38 is a subclone, derived from hepatoblastoma cell line HepG2 (ATCC® Number: HB-8065™), that expresses HBV genome under the transcriptional control of a tetracycline-responsive promoter in a TET-OFF system: addition of doxycycline, an antibiotic belonging to the class of tetracycline, suppresses HBV replication, while its removal switches on the process allowing HBV viral particles release in the cell supernatant. HepAD38 cell line is maintained in DMEM/F12, supplemented with 10% of fetal bovine serum, 1% of glutamine, 1% of penicillin/streptomycin, 0.4 mg/ml G418 and 0,3 ug/ml tetracycline. For the HBV inhibition assay, doxycycline-free medium is used in order to allow virion production.
HBV inhibition activity in vitro was performed in 96 multiwell plates. During the initial (primary) screening, compounds were first tested in triplicates at concentrations of 0.02 µM, 0.1µM, 0.5µM and 1µM. For selected compounds, an 8-point dose-response curve was obtained using 1:2 serial dilutions (starting from 0.01µM, 0.1µM, 0.4µM or 5 µM, depending on the degree of inhibition observed during the primary screening). From the dose-response curves, half maximal effective concentration (EC50) could be calculated (see also below).
In more detail, compounds - typically dissolved in DMSO stock solutions - were diluted to 2x the final desired concentration in 100 µl of the above medium (without doxycycline) and plated in three replicates in the 96-well plates.
Simultaneously, HepAD38 cells - extensively pre-washed in doxycycline-free medium in order to induce HBV production - were suspended at 2^∗10^4 cells in 100 µl of doxycycline-free medium and added to each well of the plate, to yield a final assay volume of 200 µl DMSO - used for stock solutions and compounds dilutions - which was always present in the assays at a final concentration of 0.5%.
Plates were then incubated 96 hours at 37°C and then subjected to cell viability assays and extracellular HBV quantification, in order to evaluate both the cytotoxic potential and the antiviral activity of compounds. Cytotoxicity was assessed by a commercial fluorescence assay that measures the metabolic activity of cells, directly related to cell viability (Cell Titer Blue, Promega). Anti-HBV activity was evaluated by quantification of extracellular HBV DNA with direct qPCR. In particular, supernatant was collected and centrifuged for cell debris clarification, viral DNA was extracted from virions by addition of lysis buffer (1 mM 1,4-dithiothreitol, 0.2% sodium dodecyl sulphate) and incubated at 95°C for 10 min. Samples were then diluted 1:40 and real time PCR amplification was performed with SYBR green assay (Power SYBR™ Green PCR Master Mix-Thermo Fisher Scientific) and specific HBV primer (HBV-DF:5'-[…]-3' (SEQ ID No. 1), HBV-DR:5'-[…]-3' (SEQ ID No. 2)).
Antiviral activity data for each compound are reported as EC50 value (see Table 1 legend). Excel and Graphpad Prism programs are typically used for data elaboration and EC50 calculation.

Row | SMILES | EC50 [nM]
1 | C[C@@H](NC(=O)C(=O)N1CC[C@@]2(COc3c(c(Cl)n(C)c3C(=O)Nc3ccc(F)c(C(F)F)c3)S(=O)(=O)N2)C1)C(F)(F)F [Example E29, (S)-8'-chloro-N-(3-(difluoromethyl)-4-fluorophenyl)-7'-methyl-1-(2-oxo-2-(((R)-1,1,1-trifluoropropan-2-yl)amino)acetyl)-2'H,4'H,7'H-spiro[pyrrolidine-3,3'-pyrrolo[3,4-b][1,4,5]oxathiazepine]-6'-carboxamide 1',1'-dioxide] | < 500
2 | C[C@H](NC(=O)C(=O)N1CC[C@]2(COc3c(cn(C)c3C(=O)Nc3ccc(F)c(Cl)c3)S(=O)(=O)N2)C1)C(F)(F)F [Example E22, (R)-N-(3-chloro-4-fluorophenyl)-7'-methyl-1-(2-oxo-2-(((S)-1,1,1-trifluoropropan-2-yl)amino)acetyl)-2'H,4'H,7'H-spiro[pyrrolidine-3,3'-pyrrolo[3,4-b][1,4,5]oxathiazepine]-6'-carboxamide 1',1'-dioxide] | < 500
3 | C[C@@H](NC(=O)C(=O)N1CC[C@]2(COc3c(c(Cl)n(C)c3C(=O)Nc3ccc(F)c(Cl)c3)S(=O)(=O)N2)C1)C(F)(F)F (stereo in doubt) [Example E33, (R)-8'-chloro-N-(3-chloro-4-fluorophenyl)-7'-methyl-1-(2-oxo-2-(((R)-1,1,1-trifluoropropan-2-yl)amino)acetyl)-2'H,4'H,7'H-spiro[pyrrolidine-3,3'-pyrrolo[3,4-b][1,4,5]oxathiazepine]-6'-carboxamide 1',1'-dioxide] | < 500
4 | C[C@H](NC(=O)C(=O)N1CCC2(CC1)COc1c(cn(C)c1C(=O)Nc1ccc(F)c(Cl)c1)S(=O)(=O)N2)C(F)(F)F [Example E12, (S)-N-(3-chloro-4-fluorophenyl)-7'-methyl-1-(2-oxo-2-((1,1,1-trifluoropropan-2-yl)amino)acetyl)-2'H,4'H,7'H-spiro[piperidine-4,3'-pyrrolo[3,4-b][1,4,5]oxathiazepine]-6'-carboxamide 1',1'-dioxide] | < 500
5 | Cn1cc2c(c1C(=O)Nc1ccc(F)c(Cl)c1)OC[C@]1(CCN(C(=O)C(=O)NCC(F)(F)F)C1)NS2(=O)=O [Example E20, (R)-N-(3-chloro-4-fluorophenyl)-7'-methyl-1-(2-oxo-2-((2,2,2-trifluoroethyl)amino)acetyl)-2'H,4'H,7'H-spiro[pyrrolidine-3,3'-pyrrolo[3,4-b][1,4,5]oxathiazepine]-6'-carboxamide 1',1'-dioxide] | < 500
6 | C[C@@H](NC(=O)C(=O)N1CC2(COc3c(c(Cl)n(C)c3C(=O)Nc3ccc(F)c(C(F)F)c3)S(=O)(=O)N2)C1)C(F)(F)F [Example E32, (R)-8'-chloro-N-(3-(difluoromethyl)-4-fluorophenyl)-7'-methyl-1-(2-oxo-2-((1,1,1-trifluoropropan-2-yl)amino)acetyl)-2'H,4'H,7'H-spiro[azetidine-3,3'-pyrrolo[3,4-b][1,4,5]oxathiazepine]-6'-carboxamide 1',1'-dioxide] | < 500
7 | C[C@@H](NC(=O)C(=O)N1CCC2(COc3c(c(Cl)n(C)c3C(=O)Nc3ccc(F)c(F)c3)S(=O)(=O)N2)C1)C(F)(F)F (stereo partly drawn) [Example E3, 8'-chloro-N-(3,4-difluorophenyl)-7'-methyl-1-(2-oxo-2-(((R)-1,1,1-trifluoropropan-2-yl)amino)acetyl)-2'H,4'H,7'H-spiro[pyrrolidine-3,3'-pyrrolo[3,4-b][1,4,5]oxathiazepine]-6'-carboxamide 1',1'-dioxide] | < 500
8 | C[C@H](NC(=O)C(=O)N1CC2(COc3c(cn(C)c3C(=O)Nc3ccc(F)c(C(F)F)c3)S(=O)(=O)N2)C1)C(F)(F)F [Example E18, (S)-N-(3-(difluoromethyl)-4-fluorophenyl)-7'-methyl-1-(2-oxo-2-((1,1,1-trifluoropropan-2-yl)amino)acetyl)-2'H,4'H,7'H-spiro[azetidine-3,3'-pyrrolo[3,4-b][1,4,5]oxathiazepine]-6'-carboxamide 1',1'-dioxide] | < 500
9 | C[C@@H](NC(=O)C(=O)N1CCC2(CC1)COc1c(cn(C)c1C(=O)Nc1ccc(F)c(C(F)F)c1)S(=O)(=O)N2)C(F)(F)F [Example E8, (R)-N-(3-(difluoromethyl)-4-fluorophenyl)-7'-methyl-1-(2-oxo-2-((1,1,1-trifluoropropan-2-yl)amino)acetyl)-2'H,4'H,7'H-spiro[piperidine-4,3'-pyrrolo[3,4-b][1,4,5]oxathiazepine]-6'-carboxamide 1',1'-dioxide] | < 500
10 | Cn1cc2c(c1C(=O)Nc1ccc(F)c(C(F)F)c1)OC[C@@]1(CCN(C(=O)C(=O)NC(C)(C)C(F)(F)F)C1)NS2(=O)=O [Example E28, (S)-N-(3-(difluoromethyl)-4-fluorophenyl)-7'-methyl-1-(2-oxo-2-((1,1,1-trifluoro-2-methylpropan-2-yl)amino)acetyl)-2'H,4'H,7'H-spiro[pyrrolidine-3,3'-pyrrolo[3,4-b][1,4,5]oxathiazepine]-6'-carboxamide 1',1'-dioxide] | < 500
11 | C[C@@H](NC(=O)C(=O)N1CC2(COc3c(cn(C)c3C(=O)Nc3ccc(F)c(C(F)F)c3)S(=O)(=O)N2)C1)C(F)(F)F [Example E10, (R)-N-(3-(difluoromethyl)-4-fluorophenyl)-7'-methyl-1-(2-oxo-2-((1,1,1-trifluoropropan-2-yl)amino)acetyl)-2'H,4'H,7'H-spiro[azetidine-3,3'-pyrrolo[3,4-b][1,4,5]oxathiazepine]-6'-carboxamide 1',1'-dioxide] | < 500
12 | C[C@@H](NC(=O)C(=O)N1CC2(COc3c(cn(C)c3C(=O)Nc3ccc(F)c(Cl)c3)S(=O)(=O)N2)C1)C(F)(F)F [Example E9, (R)-N-(3-chloro-4-fluorophenyl)-7'-methyl-1-(2-oxo-2-((1,1,1-trifluoropropan-2-yl)amino)acetyl)-2'H,4'H,7'H-spiro[azetidine-3,3'-pyrrolo[3,4-b][1,4,5]oxathiazepine]-6'-carboxamide 1',1'-dioxide] | < 500
13 | C[C@@H](NC(=O)C(=O)N1CCC2(COc3c(cn(C)c3C(=O)Nc3ccc(F)c(F)c3)S(=O)(=O)N2)C1)C(F)(F)F (stereo partly drawn) [Example E1, N-(3,4-difluorophenyl)-7'-methyl-1-(2-oxo-2-(((R)-1,1,1-trifluoropropan-2-yl)amino)acetyl)-2'H,4'H,7'H-spiro[pyrrolidine-3,3'-pyrrolo[3,4-b][1,4,5]oxathiazepine]-6'-carboxamide 1',1'-dioxide] | < 500
14 | Cn1cc2c(c1C(=O)Nc1ccc(F)c(Cl)c1)OC[C@@]1(CCN(C(=O)C(=O)NC(C)(C)C(F)(F)F)C1)NS2(=O)=O [Example E26, (S)-N-(3-chloro-4-fluorophenyl)-7'-methyl-1-(2-oxo-2-((1,1,1-trifluoro-2-methylpropan-2-yl)amino)acetyl)-2'H,4'H,7'H-spiro[pyrrolidine-3,3'-pyrrolo[3,4-b][1,4,5]oxathiazepine]-6'-carboxamide 1',1'-dioxide] | < 500
15 | Cn1cc2c(c1C(=O)Nc1ccc(F)c(C(F)F)c1)OCC1(CN(C(=O)C(=O)NC3CC3)C1)NS2(=O)=O [Example E19, 1-(2-(cyclopropylamino)-2-oxoacetyl)-N-(3-(difluoromethyl)-4-fluorophenyl)-7'-methyl-2'H,4'H,7'H-spiro[azetidine-3,3'-pyrrolo[3,4-b][1,4,5]oxathiazepine]-6'-carboxamide 1',1'-dioxide] | < 500
16 | C[C@@H](NC(=O)C(=O)N1CC2(COc3c(c(Cl)n(C)c3C(=O)Nc3ccc(F)c(Cl)c3)S(=O)(=O)N2)C1)C(F)(F)F [Example E31, (R)-8'-chloro-N-(3-chloro-4-fluorophenyl)-7'-methyl-1-(2-oxo-2-((1,1,1-trifluoropropan-2-yl)amino)acetyl)-2'H,4'H,7'H-spiro[azetidine-3,3'-pyrrolo[3,4-b][1,4,5]oxathiazepine]-6'-carboxamide 1',1'-dioxide] | < 500
17 | C[C@@H](NC(=O)C(=O)N1CCC2(CC1)COc1c(c(Cl)n(C)c1C(=O)Nc1ccc(F)c(Cl)c1)S(=O)(=O)N2)C(F)(F)F [Example E30, (R)-8'-chloro-N-(3-chloro-4-fluorophenyl)-7'-methyl-1-(2-oxo-2-((1,1,1-trifluoropropan-2-yl)amino)acetyl)-2'H,4'H,7'H-spiro[piperidine-4,3'-pyrrolo[3,4-b][1,4,5]oxathiazepine]-6'-carboxamide 1',1'-dioxide] | < 500
